ChEMBL document CHEMBL1201862, “PubChem BioAssay data set” (2004)
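Cells were grown in 96-well plates and exposed to each compound for 48 hours at five concentrations; endpoints were interpolated linearly between bracketing concentrations, or set to the highest concentration if not reached. GI50 = concentration required for 50% inhibition of growth.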 Active and inactive are the calls of the source. Cut-off read from the data, not from the text of the source: active = GI50 up to about 1.1 µM and inactive = higher.

Tests used:
Assay in all cases: NCI tumour cell line growth inhibition, 48 h
SW-620 = test system: SW-620
RXF 393 = test system: RXF 393
A498 = test system: A498
T47D = test system: T47D
HOP-92 = test system: HOP-92
NCI-H522 = test system: NCI-H522
NCI-H226 = test system: NCI-H226
OVCAR-3 = test system: OVCAR-3
PC-3 = test system: PC-3
SNB-19 = test system: SNB-19
786-0 = test system: 786-0
SNB-75 = test system: SNB-75
MCF7 = test system: MCF7
EKVX = test system: EKVX
NCI-H23 = test system: NCI-H23
DU-145 = test system: DU-145
BT-549 = test system: BT-549
HCT-15 = test system: HCT-15
MDA-MB-435 = test system: MDA-MB-435

| Structure (SMILES) | GI50 (SW-620) | GI50 (RXF 393) | GI50 (A498) | GI50 (T47D) | GI50 (HOP-92) | GI50 (NCI-H522) | GI50 (NCI-H226) | GI50 (OVCAR-3) | GI50 (PC-3) | GI50 (SNB-19) | GI50 (786-0) | GI50 (SNB-75) | GI50 (MCF7) | GI50 (EKVX) | GI50 (NCI-H23) | GI50 (DU-145) | GI50 (BT-549) | GI50 (HCT-15) | GI50 (MDA-MB-435) |
| --- | --- | --- | --- | --- | --- | --- | --- | --- | --- | --- | --- | --- | --- | --- | --- | --- | --- | --- | --- |
| COC(=O)C(CCC1CC(OC)N(C(=O)OCc2ccccc2)C1)/N=C/c1ccccc1 (configuration not stated) | > 100 µM (inactive) | > 100 µM (inactive) | > 100 µM (inactive) | 40.5 µM (inactive) | 59.4 µM (inactive) | 30.6 µM (inactive) | > 100 µM (inactive) | 36.1 µM (inactive) | 45.1 µM (inactive) | > 100 µM (inactive) | > 100 µM (inactive) | > 100 µM (inactive) | 60 µM (inactive) | 55.2 µM (inactive) | 76 µM (inactive) | > 100 µM (inactive) | > 100 µM (inactive) | > 100 µM | 53.8 µM (inactive) |
| CC(C)(C)[C@H]1CCC2(OCCO2)[C@](O)(CCCO)C1 | > 100 µM (inactive) | > 100 µM (inactive) | > 100 µM (inactive) | > 100 µM (inactive) | > 100 µM (inactive) | > 100 µM (inactive) | > 100 µM (inactive) | > 100 µM (inactive) | > 100 µM (inactive) | > 100 µM (inactive) | > 100 µM (inactive) | > 100 µM (inactive) | > 100 µM (inactive) | > 100 µM (inactive) | > 100 µM (inactive) | > 100 µM (inactive) | > 100 µM (inactive) | > 100 µM | > 100 µM (inactive) |
| CCOC(=O)/C=C/[C@H](O[Si](CC)(CC)CC)C(C)(C)C | 40.7 µM (inactive) | 47.1 µM (inactive) | > 100 µM (inactive) | 67.1 µM (inactive) | > 100 µM (inactive) | 29.1 µM (inactive) | > 100 µM (inactive) | 52.7 µM (inactive) | 78.3 µM (inactive) | 36.3 µM (inactive) | 80.5 µM (inactive) | > 100 µM (inactive) | 25.8 µM (inactive) | 40.5 µM (inactive) | > 100 µM (inactive) | > 100 µM (inactive) | > 100 µM (inactive) | 41.5 µM | 59 µM (inactive) |
| CCOC(=O)C12CC(C)=C(C)CC1CCCc1ccccc12 (configuration not stated) | 20.8 µM (inactive) | 18.7 µM (inactive) | 23 µM (inactive) | 15 µM (inactive) | 13.5 µM (inactive) | 17.6 µM (inactive) | 24.5 µM (inactive) | 17.5 µM (inactive) | 18.1 µM (inactive) | 29.6 µM (inactive) | 31.5 µM (inactive) | 28.8 µM (inactive) | 17 µM (inactive) | 21.1 µM (inactive) | 28.4 µM (inactive) | 34 µM (inactive) | 43.3 µM (inactive) | 22.3 µM | 27.2 µM (inactive) |
| CC1=C(C(=O)N[C@@H](CC(C)C)C(=O)O)N2C(=O)[C@@H](NC(=O)C(N)c3ccccc3)[C@H]2SC1 (some centres not stated) | > 100 µM (inactive) | > 100 µM (inactive) | > 100 µM (inactive) | > 100 µM (inactive) | > 100 µM (inactive) | > 100 µM (inactive) | 60.4 µM (inactive) | > 100 µM (inactive) | > 100 µM (inactive) | > 100 µM (inactive) | > 100 µM (inactive) | > 100 µM (inactive) | > 100 µM (inactive) | > 100 µM (inactive) |  | > 100 µM (inactive) | > 100 µM (inactive) | > 100 µM | > 100 µM (inactive) |
| COc1ccc2nc3c([N+](=O)[O-])ccc4c3c(c2c1)N(CCCN(C)C)C(=S)N4CCCN(C)C | 2.62 µM (inactive) | 9.53 µM (inactive) | 17.7 µM (inactive) | 20.5 µM (inactive) | 4.79 µM (inactive) | 1.53 µM (inactive) | 7.48 µM (inactive) | 6.04 µM (inactive) | 3.73 µM (inactive) | 9.71 µM (inactive) | 2.78 µM (inactive) | 8.41 µM (inactive) | 5.07 µM (inactive) | 3.74 µM (inactive) | 8.97 µM (inactive) | 5.16 µM (inactive) | 11.8 µM (inactive) | 3.4 µM | 5.74 µM (inactive) |
| CCO/C=N/C1=C(C#N)C(c2ccc(Cl)cc2)c2c(-c3ccccc3)nn(-c3ccccc3)c2O1 (configuration not stated) | 12.9 µM (inactive) | 7.03 µM (inactive) | 13.4 µM (inactive) | > 61.9 µM (inactive) | 5.42 µM (inactive) | 3.77 µM (inactive) | 15.7 µM (inactive) | 3.72 µM (inactive) | 4.28 µM (inactive) | 12.7 µM (inactive) | 10.2 µM (inactive) | 6.81 µM (inactive) | 3.81 µM (inactive) | 13.9 µM (inactive) | 5.15 µM (inactive) | 16 µM (inactive) | 14.1 µM (inactive) | 5.43 µM | 12.4 µM (inactive) |
